Assay results from PMC8765781, “A platform of assays for the discovery of anti-Zika small-molecules with activity in a 3D-bioprinted outer-blood-retina model” (PLoS ONE, 2022).
Where two headings read alike, the source gives them in different places.

Tested on: wild-type ZIKV (Ugandan MR766 strain) in Vero cells
Test: ZIKV cytopathic effect (CPE) inhibition qHTS assay, CellTiter-Glo readout
Format: cell-based, Zika virus
Conditions: for Emax: read-out: Max response
[1] = Zika virus, Vero, read-out: Log AC50 (M) (converted)
[2] = Zika virus, Vero, from Hill fit of the response curve, 50% of maximum activity response, 194 cherry-picked compounds, protocol name not given, read-out: AC50
[3] = Zika virus, Vero, potency in log units (Molar) from Hill fit of the response curve, 194 cherry-picked compounds, protocol name not given, read-out: Log AC50 (converted)
[4] = difference between neutral response and maximum compound response
[5] = curve class v2 (Inglese et al. 2006)

SMILES	Efficacy	AC50 (Zika virus, Vero) [M]	AC50 [1] [M]	CC-v2 (curve class classification of the dose response curve)	also measured
CN(C)c1cccc(-c2c3c(=O)n(-c4ccccc4Cl)[nH]c3cc(=O)n2C)c1 [NCGC00378460-08]	-22.536	2.91e-05	2.91e-05	–	–
CC(C)C(=O)c1cn(CC(=O)COc2ccc(Oc3ccccc3)cc2)c2ccc(C(=O)O)cc12 [NCGC00378619-01]	-17.195	1.3e-05	1.3e-05	–	–
CCCOc1ccc([S+](=O)([O-])N2CCN(CCO)CC2)cc1-c1nc2c(CCC)cn(CC)c2c(=O)[nH]1 [NCGC00378703-02]	-30.503	5.8e-05	5.8e-05	–	–
CCNC(=O)Nc1ccc(-c2nc3c(c(N4CCOC[C@@H]4C)n2)CCN(c2ncccn2)C3)cc1 [NCGC00378864-01]	-63.761	2.06e-05	2.06e-05	–	–
O=C(O)C[C@H]1CC[C@H](c2ccc(-c3ccc(Nc4ccc(C(F)(F)F)nc4)cn3)cc2)CC1 [NCGC00378933-01]	-46.182	5.8e-05	5.8e-05	-3	–
Cc1cc(=O)oc2c(C=O)c(O)ccc12 [NCGC00379137-01]	-45.072	5.8e-05	5.8e-05	-2.2	–
Nc1cccc(CNC(=O)c2ccc(Oc3ccc(OCc4cccc(F)c4)cc3)nc2)c1 [NCGC00379156-01]	-30.412	7.31e-05	7.31e-05	–	–
C=C1C(=O)CC2OC2(C)CC2OC(=O)C(=C)C2C(O)C1OC(=O)/C(C)=C\C (stereo not drawn) [NCGC00380095-01]	-52.521	4.53e-05	4.53e-05	-3	–
CC(=O)OCC1OC(O[C@H]2CC[C@@]3(C)C(CC[C@]4(C)C3CC=C3[C@@H]5CC(C)(C)CC[C@]5(C(=O)O)CC[C@]34C)[C@]2(C)CO)C(O)C(O)C1OC1OC(C)C(O)C(OC2OCC(O)C(O)C2O)C1O (stereo partly drawn) [NCGC00380575-01]	-26.099	7.78e-06	7.78e-06	–	–
C/C=C(\C)C(=O)O[C@H]1C=CC(=O)O[C@H]1/C=C/[C@@H](O)[C@H](C)O [NCGC00380589-01]	-37.007	6.51e-05	6.51e-05	–	–
CC1(C)C=CN2C(=O)C3=CCCN3C(=O)[C@@H]2C[C@@]12Nc1ccccc1C2=O [NCGC00380729-01]	-25.178	4.53e-05	4.53e-05	–	–
CC(=O)OC[C@]12C[C@H](O)C(C)=C[C@H]1O[C@@H]1[C@H](O)[C@@H](O)[C@@]2(C)[C@]12CO2 [NCGC00380760-01]	-57.268	–	–	-1.2	Log AC50 (M): -4.894 M; Max Resp: -47.163; AC50 (read-out: AC50): 1.28e-05 M
CC1CCC2C(=CCC(O)C2(C)C)C1(C)Cc1c(O)cc(CO)c(C=O)c1O (stereo not drawn) [NCGC00380764-01]	-71.029	4.04e-05	4.04e-05	-2.2	–
CO[C@H]1/C=C/C=C/C=C/C[C@H](OC(=O)[C@@H](C)NC(=O)C2CCCCC2)[C@H](C)[C@@H](O)/C(C)=C\CCc2cc(O)cc(c2)NC(=O)C1 [NCGC00380800-01]	-73.026	5.44e-06	5.44e-06	-1.2	–
C/C(=C\CCC(C)CCO)C(=O)OC1(C)CCC2C(C(=O)O)=COC(OC3OC(CO)C(O)C(O)C3O)C21 (stereo not drawn) [NCGC00380886-01]	-68.93	1.12e-05	–	–	Curve class: -3; AC50 (Zika virus, Vero, read-out: Log AC50 (converted)): 1.12e-05 M; Emax (Zika virus, Vero): -7.99%
C=C(CO)C(=O)O[C@H]1C/C(C)=C/CC/C(CO)=C/[C@H]2OC(=O)C(=C)[C@H]12 [NCGC00380889-01]	-76.574	1.43e-05	1.43e-05	-3	–
COc1c2c(c(C)c3c1C(=O)OC3)OC1(C)CC(O)C34OC(OC)(CCC3(C)C1C2)OC4(C)CO (stereo not drawn) [NCGC00380890-01]	-69.031	1.42e-05	1.42e-05	-3	–
COc1cc2c(cc1O)C(c1ccc(O)cc1)C(C)C(C)C2 (stereo not drawn) [NCGC00380925-01]	-32.851	6.51e-05	6.51e-05	-3	–

SMILES	Efficacy	AC50 (Zika virus, Vero) [M]	AC50 [1] [M]	CC-v2 (curve class classification of the dose response curve)	also measured
C=C(C)C(=O)OC1CC2(C)OC(=CC2=O)C(=C)CC2OC(=O)C(=C)C12 (stereo not drawn) [NCGC00381113-01]	–	–	–	–	AC50 [2]: 2.02e-05 M; AC50 [3]: 2.02e-05 M; Efficacy [4]: -29.164
C=C(C)C1CCC(C)C12CC(O)C1(C)OC1C2OC(=O)C(N)CCC(=O)O (stereo not drawn) [NCGC00381118-01]	-55.082	2.02e-05	2.02e-05	-3	–
CC(=O)CC1CCC(C(C)C(=O)OCC(O)CO)O1 (stereo not drawn) [NCGC00381119-01]	-53.159	2.91e-05	2.91e-05	-3	–
CC1=CC2(O)/C=C/C(C)(O)C(O)C(O)/C=C/C(=O)OC23C(=O)NC(CC(C)C)C3C1C (stereo not drawn) [NCGC00381121-01]	-74.853	1.59e-05	1.59e-05	-3	–
C[C@@H]1CCC2C(C)(C)[C@H](O)CC[C@]2(C)[C@@]12Cc1c(O)cc3c(c1O2)CN(CCO)C3=O (stereo partly drawn) [NCGC00381123-01]	-75.159	8.93e-06	8.93e-06	-3	–
C/C=C(\C)C(=O)OC1CC2C(CC=C3CC(OC4CC(OC)C(OC5CC(OC)C(OC6CC(OC)C(OC7CC(OC)C(OC8CC(OC)C(OC9OC(CO)C(O)C(O)C9O)C(C)O8)C(C)O7)C(C)O6)C(C)O5)C(C)O4)CCC32C)C2(O)CCC(C(C)=O)C12C (stereo not drawn) [NCGC00381127-01]	–	–	–	–	AC50 (Zika virus, Vero, primary qHTS curve fit, 194 cherry-picked compounds, log10 of molar AC50, read-out: Log AC50 (converted)): 4.36e-06 M; AC50 (Zika virus, Vero, primary qHTS curve fit, values match uM against the Log AC50 column, read-out: AC50): 4.36e-06 M; Emax (Zika virus, Vero, response at highest concentration): 4.53%; Curve class (qHTS curve class, negative sign = inhibitory curve): -3
CC(C)(O)C(O)C(=O)OCc1ccc(O[C@@H]2O[C@H](CO)[C@@H](O)[C@H](O)[C@H]2O)cc1 (stereo partly drawn) [NCGC00381128-01]	-65.299	1e-05	1e-05	-3	–
CC1=CC2/C=C(\C)CCC(O)C3OC(C)(C)OC3CC(=O)OC23C(=O)NC(CC(C)C)C3C1C (stereo not drawn) [NCGC00381131-01]	-69.811	1.42e-05	1.42e-05	-3	–
C=C1C(=O)O[C@@H]2C(OC(=O)/C(C)=C\C)/C(C)=C\C(=O)/C=C(\C)C[C@H](O)[C@@H]12 (stereo partly drawn) [NCGC00381208-01]	-35.291	5.08e-05	5.08e-05	-3	–
CCC(C)C(=O)OC1CC(O)C23C4OCC5(C(O)CC2C1(C)C(O)O4)C3C(=O)CC1(C)C(c2ccoc2)CC2OC215 (stereo not drawn) [NCGC00381227-01]	–	–	–	–	AC50 [2]: 6.32e-06 M; AC50 [3]: 6.32e-06 M; CC-v2 (curve class classification of the dose response curve) [5]: -2.2; Efficacy [4]: -29.737
CC(=O)OC[C@]12C[C@H](OC(C)=O)C(C)=C[C@H]1O[C@@H]1[C@H](O)[C@@H](O)[C@@]2(C)[C@]12CO2 [NCGC00381306-01]	-39.385	–	–	–	Log AC50 (M): -5.644 M; Max Resp: -23.356; AC50 (read-out: AC50): 2.27e-06 M
C=C1C(=O)OC2/C=C(\C)C3=CC(=O)C(C)(CC(OC(=O)/C(C)=C/COC(C)=O)C12)O3 (stereo not drawn) [NCGC00384503-01]	-109.374	3.17e-05	3.17e-05	-2.1	–
CC1=CC(=O)[C@@H](O)[C@]2(C)C3[C@@H](O)[C@@H]4OC(=O)[C@@H]([C@H]4C)[C@]3(C)C(=O)C[C@@H]12 (stereo partly drawn) [NCGC00384574-01]	-58.007	1.61e-06	1.61e-06	-1.2	–
C=C1CC2OC(=O)C(=C)C2C(OC(=O)/C(C)=C\C)CC2(C)OC1=CC2=O (stereo not drawn) [NCGC00384607-01]	-115.469	4.53e-05	4.53e-05	-3	–
COC1CCCC(C)OC(=O)Cc2cc(O)cc(O)c2C(=O)C1 (stereo not drawn) [NCGC00384664-01]	–	–	–	–	AC50 [2]: 4.53e-05 M; AC50 [3]: 4.53e-05 M; CC-v2 (curve class classification of the dose response curve) [5]: -3; Efficacy [4]: -54.826
C[C@@H]1O[C@@H](O[C@H]2[C@H](O[C@H]3CC[C@@]4(C)C(CC[C@]5(C)C4C=C[C@]46OC[C@@]7(CCC(C)(C)C[C@H]74)[C@@H](O[C@@H]4O[C@@H](C)[C@H](O)[C@@H](O)[C@H]4O)C[C@]65C)[C@]3(C)CO)O[C@H](CO)[C@@H](O)[C@@H]2O[C@@H]2O[C@H](CO)[C@@H](O)[C@H](O)[C@H]2O)[C@H](O)[C@H](O)[C@H]1O (stereo partly drawn) [NCGC00384707-01]	-27.107	6.18e-06	6.18e-06	–	–
CC1=CC(=O)[C@@H](O)[C@]2(C)C3[C@@H](O)[C@@H]4OC(=O)[C@@H]([C@H]4C)[C@]3(C)C(=O)[C@H](O)[C@@H]12 (stereo partly drawn) [NCGC00384766-01]	–	–	–	–	AC50 [2]: 9.04e-06 M; AC50 [3]: 9.04e-06 M; Efficacy [4]: -50.694
COc1ccc(CC2C(=O)NC(C)C(=O)N(C)C3Cc4ccc(cc4)Oc4cc(ccc4OC4OC(CO)C(O)C(O)C4O)CC(C(=O)NC(C)C(=O)NC(C)C(=O)N2C)N(C)C3=O)cc1 (stereo not drawn) [NCGC00384826-01]	–	–	–	–	AC50 [2]: 6.18e-06 M; AC50 [3]: 6.18e-06 M; CC-v2 (curve class classification of the dose response curve) [5]: -2.2; Efficacy [4]: -63.548
